According to patent US20190327961A1, “STABLE SOLID COMPOSITION BASED ON AN AROMATIC COMPOUND AND USES THEREOF” (priority 2016, published 2019):

Tests used:
[1] = tested on: rot of clementines; assay: Tracking of the rot rate of clementines in a packing station; format: in vivo, clementines (Afourar variety)
[2] = tested on: rot of clementines; assay: Drenching and waxing of non-infected, experimentally damaged clementines; format: in vivo, clementines (Afourar variety); details: washed then waxed, 27° C.
[3] = tested on: Penicillium digitatum; assay: Drenching and waxing of clementines infected by injection of spores; format: in vivo, clementines (Afourar variety); details: fruits waxed only (batches 3 and 4)
[4] = tested on: E. coli; assay: Disinfection of an artificially contaminated fibroscope; details: fibroscope contaminated with E. coli, disinfectant at (1/10)
[5] = tested on: E. coli; assay: Antibacterial action compared with glutaraldehyde in 96-well microplates; format: cell-based; details: for bacterial growth (optical density, 600-nm wavelength): E. coli, 37° C., 24 hours

With `C=CCOC(Cn1ccnc1)c1ccc(Cl)cc1Cl` (stereo not shown) [imazalil] the “Percentage of Rotten Fruits” value ([1]; Storage at 8° C., Week 1) was 2.63%, the “Percentage of Rotten Fruits” value ([1]; Storage at 8° C., Week 2) was 1.35% and the “Percentage of Rotten Fruits” value ([1]; Storage at 8° C., Week 3) was 2.16%. The “Percentage of Rotten Fruits” value ([1]; Storage at 8° C., Week 4) was 4.67%, the “Percentage of Rotten Fruits” value ([1]; Storage at 25° C., Week 1) was 7.78% and the “Percentage of Rotten Fruits” value ([1]; Storage at 25° C., Week 2) was 6.91%. The “Percentage of Rotten Fruits” value ([1]; Storage at 25° C., Week 3) was 9.68%, the “Percentage of Rotten Fruits” value ([1]; Storage at 25° C., Week 4) was 8.43% and the “Percentage of the Rotten Surface on the Fruits” value (from here on “Percentage of the Rotten Surface”) ([2]; 4 D) was 0%. The “Percentage of the Rotten Surface” value ([2]; 6 D) was 7%, the “Percentage of the Rotten Surface” value ([2]; 8 D) was 11% and the “Percentage of the Rotten Surface” value ([2]; 10 D) was 17%. The “Percentage of the Rotten Surface” value ([2]; 12 D) was 29%, the “Percentage of the Rotten Surface” value ([2]; 14 D) was 38% and the “Percentage of the Rotten Surface” value ([2]; 16 D) was 44%. The “day after infection on which rot begins” value ([3]; P. digitatum injected, 20° C.) was “starting from the fourth day” and the “diameter of the rot” value ([3]; after 7 days) was 2.55 cm.

In the case of `O=CCCCC=O` [Glutaraldehyde, glutaraldehyde], the “bacterial load After Disinfection” value [4] was “Layers”, the “bacterial load After Disinfection” value ([4]; listed as glutaraldehyde) was “layer of bacteria” and the “inhibiting minimal concentration (CMI)” value ([5]; E. coli suspension on the order of 10^8 UFC/ml, expressed as dilution) was “obtained only with the pure disinfectant”. For the same compound, the “bacterial growth (optical density, 600-nm wavelength)” value (“bacterial growth” for short) ([5]; concentration 1) was 0, the “bacterial growth” value ([5]; concentration 1/10) was 0.13 ± 0.002 and the “bacterial growth” value ([5]; concentration 1/100) was 0.15 ± 0.002. For the same compound, the “bacterial growth” value ([5]; concentration 1/250) was 0.17 ± 0.003, the “bacterial growth” value ([5]; concentration 1/500) was 0.20 ± 0.002 and the “bacterial growth” value ([5]; concentration 1/750) was 0.20 ± 0.002. The “bacterial growth” value ([5]; concentration 1/1,000) was 0.22 ± 0.012, the “bacterial growth” value ([5]; concentration 1/2,000) was 0.28 ± 0.035 and the “bacterial growth” value ([5]; concentration 1/4,000) was 0.34 ± 0.007. For the same compound, the “bacterial growth” value ([5]; concentration 1/8,000) was 0.47 ± 0.034 and the “bacterial growth” value ([5]; concentration 1/16,000) was 0.50 ± 0.005.
